The target in experiment [1] is T1, Angiotensin-converting enzyme (Rattus norvegicus, UniProt P47820).
T1 sequence (P47820 whole entry): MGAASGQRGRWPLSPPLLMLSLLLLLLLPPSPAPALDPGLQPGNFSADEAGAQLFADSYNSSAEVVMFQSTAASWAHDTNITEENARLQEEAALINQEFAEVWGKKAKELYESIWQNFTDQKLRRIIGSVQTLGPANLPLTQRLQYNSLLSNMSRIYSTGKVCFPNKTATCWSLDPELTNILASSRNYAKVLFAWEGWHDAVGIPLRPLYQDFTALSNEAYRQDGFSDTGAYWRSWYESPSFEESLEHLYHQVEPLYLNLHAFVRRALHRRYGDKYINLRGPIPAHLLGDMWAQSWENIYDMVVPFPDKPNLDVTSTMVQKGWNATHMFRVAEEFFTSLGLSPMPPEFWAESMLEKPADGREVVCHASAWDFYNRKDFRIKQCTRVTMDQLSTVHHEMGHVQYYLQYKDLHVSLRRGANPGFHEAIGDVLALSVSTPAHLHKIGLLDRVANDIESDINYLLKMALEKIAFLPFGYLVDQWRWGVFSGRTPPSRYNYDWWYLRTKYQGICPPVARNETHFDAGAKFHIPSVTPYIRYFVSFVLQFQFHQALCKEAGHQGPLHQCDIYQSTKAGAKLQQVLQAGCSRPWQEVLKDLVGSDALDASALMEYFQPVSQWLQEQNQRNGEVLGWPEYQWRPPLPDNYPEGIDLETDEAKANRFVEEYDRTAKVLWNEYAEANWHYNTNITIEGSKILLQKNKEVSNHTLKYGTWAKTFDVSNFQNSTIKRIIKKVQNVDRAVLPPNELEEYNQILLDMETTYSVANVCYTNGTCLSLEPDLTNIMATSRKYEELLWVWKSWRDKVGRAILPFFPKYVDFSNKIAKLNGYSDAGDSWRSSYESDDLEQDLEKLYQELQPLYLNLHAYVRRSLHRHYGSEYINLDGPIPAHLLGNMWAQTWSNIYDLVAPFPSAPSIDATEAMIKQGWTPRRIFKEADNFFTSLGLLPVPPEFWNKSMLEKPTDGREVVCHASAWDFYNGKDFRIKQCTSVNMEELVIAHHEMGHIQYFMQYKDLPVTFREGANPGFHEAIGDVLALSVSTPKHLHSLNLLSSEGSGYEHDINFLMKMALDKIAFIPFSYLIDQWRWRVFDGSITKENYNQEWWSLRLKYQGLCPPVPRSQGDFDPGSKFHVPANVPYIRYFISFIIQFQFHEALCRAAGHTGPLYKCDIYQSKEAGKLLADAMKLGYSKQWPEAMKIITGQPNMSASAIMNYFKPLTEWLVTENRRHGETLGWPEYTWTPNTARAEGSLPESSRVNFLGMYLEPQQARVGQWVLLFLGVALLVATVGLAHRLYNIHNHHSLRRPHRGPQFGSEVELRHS
As to the kind of experiment: In vitro inhibitory activity against angiotensin converting enzyme (ACE). Particulars: read-out: I50.

Another experiment concerns the target T2, Neprilysin (Rattus norvegicus, UniProt P07861).
T2 sequence (P07861 whole entry): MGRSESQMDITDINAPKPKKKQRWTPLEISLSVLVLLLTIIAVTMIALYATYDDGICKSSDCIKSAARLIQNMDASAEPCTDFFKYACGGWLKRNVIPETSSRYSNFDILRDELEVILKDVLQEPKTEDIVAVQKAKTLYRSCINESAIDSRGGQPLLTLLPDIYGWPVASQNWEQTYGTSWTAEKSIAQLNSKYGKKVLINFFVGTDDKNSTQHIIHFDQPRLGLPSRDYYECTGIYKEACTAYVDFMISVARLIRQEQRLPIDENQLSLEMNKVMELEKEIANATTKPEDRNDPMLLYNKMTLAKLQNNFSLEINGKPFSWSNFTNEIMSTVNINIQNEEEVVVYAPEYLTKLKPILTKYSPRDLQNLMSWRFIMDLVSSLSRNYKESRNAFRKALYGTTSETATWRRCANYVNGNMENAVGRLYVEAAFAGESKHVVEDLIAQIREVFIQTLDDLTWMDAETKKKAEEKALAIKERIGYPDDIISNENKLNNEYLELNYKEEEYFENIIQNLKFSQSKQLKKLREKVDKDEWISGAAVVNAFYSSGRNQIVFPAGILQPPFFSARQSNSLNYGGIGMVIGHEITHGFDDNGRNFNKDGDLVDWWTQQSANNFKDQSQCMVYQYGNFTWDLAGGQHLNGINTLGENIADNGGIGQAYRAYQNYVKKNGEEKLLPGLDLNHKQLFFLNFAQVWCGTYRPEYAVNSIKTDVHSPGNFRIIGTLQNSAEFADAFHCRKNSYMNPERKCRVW
The experiment is described as follows: In vitro inhibitory activity against neutral endopeptidase (NEP). To be noted: read-out: I50.

For another experiment, the species on record is Rattus norvegicus. As to the kind of experiment: Dose required to effect 50% inhibition of the AI induced pressor response in normotensive rat. In kind it is functional.

With `O=C(N[C@H]1CCC[C@@H]2SC[C@@H](C(=O)O)N2C1=O)[C@@H](S)Cc1ccccc1`, the results for the IC50 (in experiment [1]; on Neprilysin) were 11.5 nM and 2820 nM, respectively.
On the same counts, the results for `O=C(O)[C@H]1CCS[C@@H]2CCC[C@H](NC(=O)[C@@H](S)Cc3ccccc3)C(=O)N12` are 205 nM and 937 nM.
In the same order, the values of `O=C(N[C@H]1CCC[C@H]2SCC[C@@H](C(=O)O)N2C1=O)[C@@H](S)Cc1ccccc1` are 25 nM and 42 nM.
On the same counts, the results for `O=C(N[C@H]1CCC[C@@H]2SCC[C@@H](C(=O)O)N2C1=O)[C@@H](S)Cc1ccccc1` are 11.6 nM and 133 nM.
A word on the ED50: it is the dose that gives a 50% effect, or the effect in half of the subjects. Higher therefore signals weaker potency. Consider `O=C(N[C@H]1CCC[C@H]2SC[C@@H](C(=O)O)N2C1=O)[C@@H](S)Cc1ccccc1`, for which the IC50 came to 1.6 nM in experiment [1] and 11.5 nM on Neprilysin. The same compound returned an ED50 in the experiment filed under Rattus norvegicus of 0.07 µmol/kg.
On the same counts, the results for `O=C(N[C@H]1CCC[C@H]2SC[C@@H](C(=O)O)N2C1=O)[C@@H](CS)Cc1ccccc1` are 5.5 nM, 1.1 nM and 0.8 µmol/kg.

For the origin of these results see ChEMBL document CHEMBL1152049, “Dual metalloprotease inhibitors.v. Utilization of bicyclic azepinonethiazolidines and azepinonetetrahydrothiazines in constrained peptidomimetics of mercaptoacyl dipeptides” (Bioorg Med Chem Lett, 1995).
